From PubChem BioAssay (NCI) come the findings set out here.

Some test systems named below: 786-0 renal; BT-549 breast; COLO 205 colon; HCT-116 colon; HOP-62 NSCLC; HOP-92 NSCLC; HS 578T breast; IGROV1 ovarian; M14 melanoma; MCF7 breast; SK-MEL-5 melanoma; TK-10 renal; UACC-257 melanoma.
Experiment in all cases: NCI anticancer screen, dose series, 48 h

The structures appear in SMILES notation. “And” between values parts separate entries of the source, which are not always exact repeats. Identical values can stand only once.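 Dose response: 5 concentrations. Exposure: 48 h. Format: 96-well plates. Endpoint: linear interpolation; highest concentration if not reached. GI50 marks 50% less growth. TGI: concentration producing complete growth inhibition.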 Starred links: 1 amine or outer side, 2 acyl side, 3 side chain; linkers in the order of their positions; H or OH if unused. Positions of bridges follow the written chain, without caps; N, C: chain ends. Where a SMILES comes first, the peptide text is derived from it. Non-standard residues stand in square brackets, D forms with d. Residues, ends and D or L forms follow the SMILES beside them. Chains are numbered I, II in the order given. The star is where a group is joined. Actinocin(9to1) = Cc1c2oc3c(C)ccc(C(=O)[*:1])c3nc-2c(C(=O)[*:2])c(N)c1=O; NMeY = CN[CH](Cc1ccc(O)cc1)C(=O)O; Boc = CC(C)(C)OC(=O)*; Bn = c1ccc(C*)cc1; Sar = CNCC(=O)O Bounds are passed on as bounds.

With `COc1cc(OC)cc(Oc2nc3ccccc3nc2C(F)(F)F)c1`, the TGI in the test on 786-0 renal, in the test with BT-549 breast, in the test with COLO 205 colon, in the test on HCT-116 colon, in the test on HOP-62 NSCLC and in the test with HOP-92 NSCLC was more than 100 µM throughout. Also, the TGI in the test on HS 578T breast, in the test with IGROV1 ovarian, with M14 melanoma, with MCF7 breast, with SK-MEL-5 melanoma and with TK-10 renal was more than 100 µM in each case. Besides, the TGI in the test with UACC-257 melanoma was more than 100 µM.
On to `CO/N=C(\C(=O)OC(=NC1CCCCC1)NC1CCCCC1)c1csc(NC(c2ccccc2)(c2ccccc2)c2ccccc2)n1`, for which the TGI in the test with 786-0 renal, with BT-549 breast, in the test with COLO 205 colon, in the test with HCT-116 colon, with HOP-62 NSCLC and in the test with HOP-92 NSCLC was more than 10 µM in each case. Besides, the TGI in the test with HS 578T breast, in the test on IGROV1 ovarian, with M14 melanoma, with MCF7 breast, in the test with SK-MEL-5 melanoma and in the test on TK-10 renal was more than 10 µM each time. Moreover, in the test on UACC-257 melanoma, the TGI is more than 10 µM.
Regarding `Brc1ccc2[nH]cc(-c3csc(-c4c[nH]c5ccccc45)n3)c2c1`, the TGI was 5.27 µM with 786-0 renal; 22.7 µM in the test with BT-549 breast; 7.72 µM with COLO 205 colon; 6.66 µM in the test with HCT-116 colon; 16.4 µM in the test with HOP-62 NSCLC; 7.68 µM in the test on HOP-92 NSCLC. Further, the TGI in the test on HS 578T breast was more than 47.9 µM; in the test on IGROV1 ovarian, 11.6 µM; with M14 melanoma, 5.14 µM; in the test with MCF7 breast, more than 100 µM; with SK-MEL-5 melanoma, 5.64 µM; in the test on TK-10 renal, 12 µM. For the same compound, the TGI in the test with UACC-257 melanoma turned out to be 17.8 µM.
In the case of `CCn1c(-c2ccccc2)cs/c1=N\C(P(=O)(O)O)P(=O)(O)O`, the TGI in the test on 786-0 renal, with BT-549 breast, in the test on COLO 205 colon, in the test with HCT-116 colon, in the test on HOP-62 NSCLC and in the test on HOP-92 NSCLC was more than 100 µM in each case. Also, the TGI in the test with HS 578T breast, in the test with IGROV1 ovarian, in the test on M14 melanoma, with MCF7 breast, in the test with SK-MEL-5 melanoma and in the test with TK-10 renal was more than 100 µM throughout. The TGI in the test on UACC-257 melanoma is more than 100 µM.
In the case of `CC1=C(C)CC2C(=O)N(c3cc(C(C)(C)C)ccc3C(C)(C)C)C(=O)C2C1` (configuration not stated), the TGI was more than 100 µM in the test with 786-0 renal; more than 100 µM in the test on BT-549 breast; more than 100 µM in the test on COLO 205 colon; more than 100 µM in the test with HCT-116 colon; 82.3 µM in the test with HOP-62 NSCLC; more than 100 µM with HOP-92 NSCLC. Also, the TGI in the test on HS 578T breast is 56.8 µM; in the test with IGROV1 ovarian, more than 100 µM; with M14 melanoma, more than 100 µM; in the test with MCF7 breast, 17.2 µM; in the test on SK-MEL-5 melanoma, more than 100 µM; in the test on TK-10 renal, more than 100 µM. This compound also had a TGI in the test with UACC-257 melanoma of more than 100 µM.
Take `CCOC(=O)NC(Nc1ccc(C)cc1)(C(F)(F)F)C(F)(F)F`: the TGI with 786-0 renal, in the test with BT-549 breast, with COLO 205 colon, in the test with HCT-116 colon, with HOP-62 NSCLC and in the test on HOP-92 NSCLC was more than 100 µM each time. Also, the TGI in the test on HS 578T breast, in the test on IGROV1 ovarian, in the test on M14 melanoma, with MCF7 breast, in the test on SK-MEL-5 melanoma and with TK-10 renal was more than 100 µM each time.
As for `COC(=O)C(CC(C)C)NC(=O)C(C)NC(=O)C(Cc1ccc(OCc2ccccc2)cc1)NC(=O)C(COCc1ccccc1)NC(=O)OC(C)(C)C` (configuration not stated) (Boc-S(Bn)Y(Bn)AL-OMe; configuration not given here), the TGI in the test with 786-0 renal, in the test with BT-549 breast, in the test with COLO 205 colon, in the test with HCT-116 colon, in the test with HOP-62 NSCLC and with HOP-92 NSCLC was more than 100 µM in each case. For the same compound, the TGI in the test on HS 578T breast, with IGROV1 ovarian, in the test on M14 melanoma, in the test on MCF7 breast, with SK-MEL-5 melanoma and in the test with TK-10 renal was more than 100 µM throughout.
Consider `O=C1/C(=C/c2ccc(Br)s2)NC(=S)N1c1ccccc1`, for which the TGI in the test on 786-0 renal was more than 100 µM; in the test on BT-549 breast, more than 100 µM; with COLO 205 colon, more than 100 µM; with HCT-116 colon it was more than 100 µM; in the test on HOP-62 NSCLC, more than 100 µM; with HOP-92 NSCLC, 71.6 µM. In addition, the TGI in the test with HS 578T breast, with IGROV1 ovarian, in the test on MCF7 breast, with SK-MEL-5 melanoma, in the test on TK-10 renal and in the test on UACC-257 melanoma was more than 100 µM throughout.
With `CC(=O)OC(OC(C)=O)c1ccc2ccc3cccc4ccc1c2c34`, the TGI in the test with 786-0 renal was more than 100 µM; with BT-549 breast, 53.6 µM; with COLO 205 colon it was 58.4 µM; in the test on HCT-116 colon it was 52.4 µM; with HOP-92 NSCLC, 42.3 µM; in the test with HS 578T breast, 36.8 µM. The TGI in the test with IGROV1 ovarian is 54.1 µM; in the test with M14 melanoma it was 61 µM; in the test on MCF7 breast, 79.1 µM; with SK-MEL-5 melanoma it was 32.8 µM; in the test with TK-10 renal, 21.4 µM; with UACC-257 melanoma, 34.5 µM.
As for `Cc1c2oc3c(C)ccc(C(=O)NC4C(=O)NC(C(C)C)C(=O)N5CCCC5C(=O)N(C)CC(=O)N(C)C(Cc5ccc(O)cc5)C(=O)OC4C)c3nc-2c(C(=O)NC2C(=O)NC(C(C)C)C(=O)N3CCCC3C(=O)N(C)CC(=O)N(C)C(Cc3ccc(O)cc3)C(=O)OC2C)c(N)c1=O` (configuration not stated) (I: TVP[Sar][NMeY] / II: TVP[Sar][NMeY]; ester I:1-I:C, II:1-II:C; linker I:N-II:N via Actinocin(9to1); configuration not given here), the TGI in the test on 786-0 renal was more than 1 µM; with BT-549 breast, 0.213 µM and 0.0733 µM; with COLO 205 colon, 0.216 µM and 0.0889 µM; in the test on HCT-116 colon, more than 1 µM; in the test on HOP-92 NSCLC it was more than 1 µM; in the test on HS 578T breast, 0.0521 µM and 0.0624 µM. In addition, the TGI in the test with IGROV1 ovarian was more than 1 µM; in the test on M14 melanoma, > 0.793 µM and 0.229 µM; in the test on MCF7 breast, more than 1 µM; in the test with SK-MEL-5 melanoma, 0.221 µM and 0.0252 µM; in the test on TK-10 renal it was more than 1 µM; in the test on UACC-257 melanoma, 0.54 µM and 0.446 µM. Moreover, the GI50 in the test with COLO 205 colon is 0.0175 µM and 0.00568 µM; in the test with HCT-116 colon, 0.00553 µM and 0.00136 µM; with M14 melanoma it was 0.175 µM and 0.0513 µM; with MCF7 breast it was 0.00329 µM; with SK-MEL-5 melanoma, 0.0227 µM and 0.00612 µM; in the test on TK-10 renal, 0.117 µM. In addition, the GI50 in the test on UACC-257 melanoma was 0.0936 µM and 0.0111 µM.
